# Source: patent publication US6994868B2, “Compositions useful as inhibitors of ERK” (Vertex Pharmaceuticals Incorporated, priority 2000, dated 2006)
# Biological target: activated ERK2 (Homo sapiens, UniProt P28482)
# Experiment: ERK inhibition assay (spectrophotometric coupled-enzyme assay)
# Assay type: biochemical
# Details: activated ERK2 10 nM, 65 μM ATP, 200 μM erktide peptide, 30° C., pH 7.5; read-out: ERK2 Inhibitory Activity (Ki class)
# Chain of activated ERK2 (P28482 whole entry): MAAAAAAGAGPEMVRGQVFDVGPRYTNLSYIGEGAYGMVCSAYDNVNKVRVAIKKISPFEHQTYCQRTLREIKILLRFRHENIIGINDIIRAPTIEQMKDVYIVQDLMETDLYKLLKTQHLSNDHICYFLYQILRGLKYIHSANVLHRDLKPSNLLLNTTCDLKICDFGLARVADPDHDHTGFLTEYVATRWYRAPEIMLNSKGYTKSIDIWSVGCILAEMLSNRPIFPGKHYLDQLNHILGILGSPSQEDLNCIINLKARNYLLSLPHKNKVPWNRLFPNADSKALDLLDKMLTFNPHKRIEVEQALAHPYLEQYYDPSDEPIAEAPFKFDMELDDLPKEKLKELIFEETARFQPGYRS
row,SMILES,Ki [nM]
1,COc1ccccc1CNC(=O)c1cc(-c2[nH]ncc2-c2cccc(F)c2)c[nH]1 [II-A-63],< 1000
2,O=C(NCc1ccccc1)c1cc(-c2[nH]ncc2-c2ccc(F)c(F)c2)c[nH]1 [II-A-85],< 1000
3,O=C(NCc1ccccc1)c1cc(-c2[nH]ncc2-c2cccc(F)c2F)c[nH]1 [II-A-103],< 1000
4,O=C(NCc1cccnc1)c1cc(-c2[nH]ncc2-c2ccccc2)c[nH]1 [II-A-153],1000 to 5000
5,O=C(NCc1ccncc1)c1cc(-c2[nH]ncc2-c2cccc(F)c2)c[nH]1 [II-A-80],< 1000
6,COc1cccc(-c2cn[nH]c2-c2c[nH]c(C(=O)NCc3ccco3)c2)c1 [II-A-147],1000 to 5000
7,COc1cccc(-c2cn[nH]c2-c2c[nH]c(C(=O)NCc3cccnc3)c2)c1 [II-A-145],1000 to 5000
8,O=C(NCc1ccccc1)c1cc(-c2[nH]ncc2-c2cccc(Cl)c2F)c[nH]1 [II-A-82],< 1000
9,O=C(c1cc(-c2[nH]ncc2-c2ccccc2)c[nH]1)N1CCOCC1 [II-A-150],1000 to 5000
10,COc1cccc(-c2cn[nH]c2-c2c[nH]c(C(=O)N3CCCC3)c2)c1 [II-A-144],1000 to 5000
11,COc1cccc(-c2cn[nH]c2-c2c[nH]c(C(=O)N(C)C)c2)c1 [II-A-154],1000 to 5000
12,CC(C)NC(=O)c1cc(-c2[nH]ncc2-c2ccccc2)c[nH]1 [II-A-158],1000 to 5000
13,O=C(NCc1ccco1)c1cc(-c2[nH]ncc2-c2ccccc2)c[nH]1 [II-A-149],1000 to 5000
14,COc1cccc(-c2cn[nH]c2-c2c[nH]c(C(=O)N3CCC(C)CC3)c2)c1 [II-A-163],> 5000
15,O=C(c1cc(-c2[nH]ncc2-c2ccccc2)c[nH]1)N1CCCC1 [II-A-134],1000 to 5000
